Assay results from patent publication US20240360104A1, “TRANSCRIPTIONAL ENHANCED ASSOCIATED DOMAIN (TEAD) TRANSCRIPTION FACTOR INHIBITORS AND USES THEREOF” (Dana-Farber Cancer Institute, Inc., priority 2021, published 2024).

Tests used:
NCI-H226 cells = experiment: Antiproliferation assay on NCI-H226 cells (CellTiter-Glo, 5-day treatment); type: cell-based; conditions: Homo sapiens, 120 h, 200 cells/well, 384 plate
Protocol: Example 1. Antiproliferation Assay on NCI-H226 Cells (200 Cells/Well, 384 Plate, 5-Day Treatment)
The compounds of the disclosure were tested for their ability in an antiproliferation assay using NCI-H226 cells (FIG. 6 and FIG. 7). The following table summarizes the IC50 values calculated from the graph of the percent inhibition versus the log of the concentration of representative compounds of the disclosure.
For 2D adherent cell viability experiment, the cells were seeded at 384-well plate (Corning, no. 3570) at the density of 200 cells/well (FIGS. 1-7). The next day, compounds were added using Janus workstation (PerkinElmer). After 5 days treatment, the cell viability was measured by CellTiter-Glo kit (Promega, no. G7570) as the manufacturer recommended.

H2052 cells = experiment: Antiproliferation assay using H2052 cells; type: cell-based; conditions: Homo sapiens, NCI-H2052; H2052 cells (FIG. 2)

Compound	IC50 (NCI-H226 cells) [nM]	IC50 (H2052 cells) [nM]
C=CC(=O)N1C[C@@H](n2nc(-c3cnn(C)c3)ccc2=O)[C@H](OCc2ccc(C(F)(F)F)cc2)C1 (relative stereo) [VI-2, 2-(trans-1-acryloyl-4-(4-(trifluoromethyl)benzyloxy)pyrrolidin-3-yl)-6-(1-methyl-1H-pyrazol-4-yl)pyridazin-3(2H)-one]	99	–
C=CC(=O)N1C[C@@H](Nc2ccncn2)[C@H](OCc2ccc(C(F)(F)F)cc2)C1 (relative stereo) [VII-11, 1-(trans-3-(pyrimidin-4-ylamino)-4-(4-(trifluoromethyl)benzyloxy)pyrrolidin-1-yl)prop-2-en-1-one]	189	–
C=CC(=O)N1C[C@@H](Nc2ncccn2)[C@H](OCc2ccc(C(F)(F)F)cc2)C1 (relative stereo) [Compound I-1, 1-(trans-3-(pyrimidin-2-ylamino)-4-(4-(trifluoromethyl)benzyloxy)pyrrolidin-1-yl)prop-2-en-1-one]	36	–
C=CC(=O)N1C[C@@H](OCc2ccc(C(F)(F)F)cc2)[C@H](c2ccc(S(C)(=O)=O)cc2)C1 (relative stereo) [VII-1, 1-(trans-3-(4-(methylsulfonyl)phenyl)-4-(4-(trifluoromethyl)benzyloxy)pyrrolidin-1-yl)prop-2-en-1-one]	168	–
C=CC(=O)N1C[C@@H](n2cc(-c3cccc(C#N)c3)nn2)[C@H](OCc2ccc(C(F)(F)F)cc2)C1 (relative stereo) [II-7, 3-(1-(trans-1-acryloyl-4-(4-(trifluoromethyl)benzyloxy)pyrrolidin-3-yl)-1H-1,2,3-triazol-4-yl)benzonitrile]	377	–
C=CC(=O)N1C[C@@H](NS(=O)(=O)c2c(C)noc2C)[C@H](OCc2ccc(C(F)(F)F)cc2)C1 (relative stereo) [Compound V-5, N-(trans-1-acryloyl-4-(4-(trifluoromethyl)benzyloxy)pyrrolidin-3-yl)-3,5-dimethylisoxazole-4-sulfonamide]	954	–
C=CC(=O)N1C[C@@H](n2ncc(-c3cnn(C)c3)cc2=O)[C@H](OCc2ccc(C(F)(F)F)cc2)C1 (relative stereo) [VI-3, 2-(trans-1-acryloyl-4-((4-(trifluoromethyl)benzyl)oxy)pyrrolidin-3-yl)-5-(1-methyl-1H-pyrazol-4-yl)pyridazin-3(2H)-one]	41	–
C=CC(=O)N1C[C@@H](n2cc(-c3ccc(N)nc3)nn2)[C@H](OCc2ccc(C(F)(F)F)cc2)C1 (relative stereo) [II-6, 1-(trans-3-(4-(6-aminopyridin-3-yl)-1H-1,2,3-triazol-1-yl)-4-(4-(trifluoromethyl)benzyloxy)pyrrolidin-1-yl)prop-2-en-1-one]	112	–
C=CC(=O)N1C[C@@H](n2cc(C(N)=O)nn2)[C@H](OCc2ccc(C(F)(F)F)cc2)C1 (relative stereo) [II-1, 1-(trans-1-acryloyl-4-(4-(trifluoromethyl)benzyloxy)pyrrolidin-3-yl)-1H-1,2,3-triazole-4-carboxamide]	580	–
C#Cc1ccc(CO[C@@H]2CN(C(=O)C=C)C[C@H]2n2cc(-c3cccnc3)nn2)cc1 [III-6, 1-((3R,4R)-3-(4-ethynylbenzyloxy)-4-(4-(pyridin-3-yl)-1H-1,2,3-triazol-1-yl)pyrrolidin-1-yl)prop-2-en-1-one]	256	–
C=CC(=O)N1C[C@@H](OCc2ccc(C(F)(F)F)cc2)[C@H](c2cccc(S(C)(=O)=O)c2)C1 [VII-2]	256	–
C=C(F)C(=O)N1C[C@@H](Nc2ncccn2)[C@H](OCc2ccc(C(F)(F)F)cc2)C1 [Compound I-9, 2-fluoro-1-((3R, 4R)-3-(pyrimidin-2-ylamino)-4-(4-(trifluoromethyl)benzyloxy)pyrrolidin-1-yl)prop-2-en-1-one]	23	–
C=CC(=O)N1C[C@@H](n2ccc(C(=O)NC)n2)[C@H](OCc2ccc(C(F)(F)F)cc2)C1 (relative stereo) [IV-5, 1-(trans-1-acryloyl-4-(4-(trifluoromethyl)benzyloxy)pyrrolidin-3-yl)-N-methyl-1H-pyrazole-3-carboxamide]	490	–
C=CC(=O)N1C[C@@H](n2cc(-c3cncc(N)c3)nn2)[C@H](OCc2ccc(C(F)(F)F)cc2)C1 (relative stereo) [II-5, 1-(trans-3-(4-(5-aminopyridin-3-yl)-1H-1,2,3-triazol-1-yl)-4-(4-(trifluoromethyl)benzyloxy)pyrrolidin-1-yl)prop-2-en-1-one]	172	–
C=CC(=O)N1C[C@@H](n2cc(C3CCN(C)CC3)nn2)[C@H](OCc2ccc(C(F)(F)F)cc2)C1 (relative stereo) [II-19, 1-(trans-3-(4-(1-methylpiperidin-4-yl)-1H-1,2,3-triazol-1-yl)-4-(4-(trifluoromethyl)benzyloxy)pyrrolidin-1-yl)prop-2-en-1-one]	193	–
C=CC(=O)N1C[C@@H](NS(=O)(=O)c2cccc(C#N)c2)[C@H](OCc2ccc(C(F)(F)F)cc2)C1 (relative stereo) [Compound V-6, N-(trans-1-acryloyl-4-(4-(trifluoromethyl)benzyloxy)pyrrolidin-3-yl)-3-cyanobenzenesulfonamide]	543	–
C=CC(=O)N1C[C@@H](n2ccnn2)[C@H](OCc2ccc(C(F)(F)F)cc2)C1 [II-8]	78	142
C=CC(=O)N1C[C@@H](NS(=O)(=O)c2cccnc2)[C@H](OCc2ccc(C(F)(F)F)cc2)C1 [Compound V-1]	380	–
C=CC(=O)N1C[C@@H](n2cc(C(=O)NC)nn2)[C@H](OCc2ccc(C(F)(F)F)cc2)C1 (relative stereo) [II-2, 1-(trans-1-acryloyl-4-(4-(trifluoromethyl)benzyloxy)pyrrolidin-3-yl)-N-methyl-1H-1,2,3-triazole-4-carboxamide]	461	–
